Source: BindingDB's records for doi:10.7270/Q2F47MKR (Burnham Center For Chemical Genomics, 2010)

Test: blockers of orphan receptor GPR35 – imaging, image-based, set 2, SAR follow-up (AID 2480)

IC50 | IC50 (inactive by the depositor's call) | Compound
– | 17.7 µM | Cc1ccc(Cn2ncc3c(N4CCN(c5ccc(C)cc5)CC4)ncnc32)cc1
> 32 µM | – | CC(C)COc1ccc(-c2nnc(-c3ccc(Cl)nc3)o2)cc1 [MLS-0435441.0001]
> 32 µM | – | CCC(Sc1nc2ccsc2c(=O)n1Cc1ccc(C(=O)O)cc1)C(=O)Nc1ccc(C)c(Cl)c1 (centres undefined)

Compound | IC50 | IC50 (inactive by the depositor's call)
Cc1c(C(=O)Nc2ccc3c(c2)OCCO3)sc2ncnc(N3CCC(C)CC3)c12 [N-(2,3-dihydro-1,4-benzodioxin-6-yl)-5-methyl-4-(4-methyl-1-piperidinyl)-6-thieno[2,3-d]pyrimidinecarboxamide] | 4.07 µM | –
